Measurements published in PubChem BioAssay AID328 (DTP/NCI, 2004).
Where “and” joins values, the source holds several entries; their conditions need not be identical. Identical values can stand only once. Inconclusive results and toxic doses are left out.

System: BDF1 mice, P388 leukemia ip, median survival T/C
Assay: NCI In Vivo Anticancer Drug Screen. Data for tumor model P388 Leukemia (intraperitoneal) in B6D2F1 (BDF1) mice
Details: endpoint: median survival time, higher = longer survival
Procedure, shortened: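 Survival ratio, drug arm over vehicle arm, in mice with a transplanted tumour.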

[1] = dose: 100.0 mg/kg/injection, schedule: Q01DX009 (ip), vehicle: saline
[2] = dose: 100.0 mg/kg/injection, schedule: Q04DX003 (ip), vehicle: saline
[3] = dose: 200.0 mg/kg/injection, schedule: Q01DX009 (ip), vehicle: saline
[4] = dose: 200.0 mg/kg/injection, schedule: Q04DX003 (ip), vehicle: saline
[5] = dose: 400.0 mg/kg/injection, schedule: Q04DX003 (ip), vehicle: saline
[6] = dose: 100.0 mg/kg/injection, schedule: Q04DX003 (ip), vehicle: saline with Tween-80
[7] = dose: 100.0 mg/kg/injection, schedule: Q01DX009 (ip), vehicle: Klucel (hydroxypropylcellulose) (HPC)
[8] = dose: 100.0 mg/kg/injection, schedule: Q04DX003 (ip), vehicle: Klucel (hydroxypropylcellulose) (HPC)
[9] = dose: 200.0 mg/kg/injection, schedule: Q01DX009 (ip), vehicle: Klucel (hydroxypropylcellulose) (HPC)
[10] = dose: 200.0 mg/kg/injection, schedule: Q04DX003 (ip), vehicle: Klucel (hydroxypropylcellulose) (HPC)
[11] = dose: 400.0 mg/kg/injection, schedule: Q01DX009 (ip), vehicle: Klucel (hydroxypropylcellulose) (HPC)
[12] = dose: 6.25 mg/kg/injection, schedule: Q01DX009 (ip), vehicle: Klucel (hydroxypropylcellulose) (HPC)
[13] = dose: 12.5 mg/kg/injection, schedule: Q01DX009 (ip), vehicle: saline with Tween-80
[14] = dose: 25.0 mg/kg/injection, schedule: Q01DX009 (ip), vehicle: saline with Tween-80
[15] = dose: 50.0 mg/kg/injection, schedule: Q01DX009 (ip), vehicle: saline with Tween-80
[16] = dose: 50.0 mg/kg/injection, schedule: Q04DX003 (ip), vehicle: saline with Tween-80
[17] = dose: 100.0 mg/kg/injection, schedule: Q01DX009 (ip), vehicle: saline with Tween-80
[18] = dose: 200.0 mg/kg/injection, schedule: Q01DX009 (ip), vehicle: saline with Tween-80

In the case of `[N-]=[N+]=CC(=O)OCC(N)C(=O)O` (configuration not stated), the T/C [1] is reported as 110 % of control, the T/C [2] is reported as 109 % of control and the T/C [3] is reported as 110 % of control. For the same compound, the T/C [4] was 109 % of control and the T/C [5] was 118 % of control.

With `O=C(O)C1CCCN1C(=O)CCS` (configuration not stated) the T/C (dose: 50.0 mg/kg/injection, schedule: Q01DX009 (ip), vehicle: saline) was 90 % of control, the T/C [1] was 90 % of control and the T/C [3] was 97 % of control.

With `COc1cc([N+](=O)[O-])ccc1N` the T/C [6] was 100 % of control.

`Cc1nn(CCO)c(C)c1N=[N+]([O-])c1c(C)nn(CCO)c1C` was tested, and the T/C (dose: 15.0 mg/kg/injection, schedule: Q01DX009 (ip), vehicle: saline with Tween-80) was 114 % of control.

With `CCOC(=O)/C(C#N)=C/c1ccc(O)c(OC)c1` the T/C [7] was 105 % of control, the T/C [8] was 95 % of control and the T/C [9] was 110 % of control. The T/C [10] was 100 % of control, the T/C [11] was 95 % of control and the T/C (dose: 400.0 mg/kg/injection, schedule: Q04DX003 (ip), vehicle: Klucel (hydroxypropylcellulose) (HPC)) was 100 % of control.

With `CC(=O)c1ccccc1-n1c(C)ccc1C` the T/C (dose: 25.0 mg/kg/injection, schedule: Q01DX009 (ip), vehicle: saline + alcohol) was 114 % of control, the T/C (dose: 50.0 mg/kg/injection, schedule: Q01DX009 (ip), vehicle: saline + alcohol) was 122 % of control and the T/C (dose: 50.0 mg/kg/injection, schedule: Q04DX003 (ip), vehicle: saline) was 96 % of control. For the same compound, the T/C (dose: 100.0 mg/kg/injection, schedule: Q01DX009 (ip), vehicle: saline + alcohol) was 116 % of control, the T/C [2] was 119 % of control and the T/C (dose: 200.0 mg/kg/injection, schedule: Q01DX009 (ip), vehicle: saline + alcohol) was 99 % of control. The T/C [4] was 92 % of control and the T/C [5] was 97 % of control.

With `COc1cc(C2c3cc4c(cc3C(O)C3COC(=O)C23)OCO4)cc(O)c1OC` (configuration not stated) the T/C (dose: 2.0 mg/kg/injection, schedule: Q01DX009 (ip), vehicle: saline) was 120 % of control and the T/C (dose: 4.0 mg/kg/injection, schedule: Q01DX009 (ip), vehicle: saline) was 105 % of control.

In the case of `O=C(CBr)c1ccc(F)cc1`, the T/C (dose: 0.78 mg/kg/injection, schedule: Q01DX009 (ip), vehicle: Klucel (hydroxypropylcellulose) (HPC)) is reported as 110 % of control, the T/C (dose: 1.56 mg/kg/injection, schedule: Q01DX009 (ip), vehicle: Klucel (hydroxypropylcellulose) (HPC)) is reported as 110 % of control and the T/C (dose: 3.12 mg/kg/injection, schedule: Q01DX009 (ip), vehicle: Klucel (hydroxypropylcellulose) (HPC)) is reported as 112 % of control. For the same compound, the T/C [12] was 118 % of control.

In the case of `OC(Cc1ccc2ccccc2n1)C(Cl)(Cl)Cl` (configuration not stated), the T/C (dose: 3.12 mg/kg/injection, schedule: Q01DX009 (ip), vehicle: saline with Tween-80) is reported as 95 % of control, the T/C (dose: 6.25 mg/kg/injection, schedule: Q01DX009 (ip), vehicle: saline with Tween-80) is reported as 100 % of control and the T/C [13] is reported as 100 % of control. For the same compound, the T/C (dose: 12.5 mg/kg/injection, schedule: Q04DX003 (ip), vehicle: saline with Tween-80) was 100 % of control, the T/C [14] was 92 % of control and the T/C (dose: 25.0 mg/kg/injection, schedule: Q04DX003 (ip), vehicle: saline with Tween-80) was 105 % of control. The T/C [15] was 90 % of control, the T/C [16] was 100 % of control and the T/C [6] was 91 % of control.

In the case of `C=C(C)CP(=O)(c1ccccc1)c1ccccc1`, the T/C [15] is reported as 96 % of control, the T/C [17] is reported as 100 % of control and the T/C [18] is reported as 91 % of control.

`c1ccc(Nc2ccc(Nc3ccccc3)cc2)cc1` was tested, and the T/C (dose: 50.0 mg/kg/injection, schedule: Q04DX003 (ip), vehicle: Klucel (hydroxypropylcellulose) (HPC)) was 118 % of control, the T/C (dose: 100.0 mg/kg/injection, schedule: Q01DX001 (ip), vehicle: Klucel (hydroxypropylcellulose) (HPC)) was 90 % of control and the T/C [8] was 104 % of control. For the same compound, the T/C (dose: 200.0 mg/kg/injection, schedule: Q01DX001 (ip), vehicle: Klucel (hydroxypropylcellulose) (HPC)) was 100 % of control, the T/C [10] was 104 % of control and the T/C (dose: 400.0 mg/kg/injection, schedule: Q01DX001 (ip), vehicle: Klucel (hydroxypropylcellulose) (HPC)) was 90 % of control.

In the case of `c1cc[c]([Sn]([c]2ccccc2)([c]2ccccc2)[c]2ccccc2)cc1`, the T/C [17] is reported as 94 % of control, the T/C [18] is reported as 94 % of control and the T/C (dose: 400.0 mg/kg/injection, schedule: Q01DX009 (ip), vehicle: saline with Tween-80) is reported as 97 % of control.

`O=S(=O)(O)c1ccc(Nc2ccccc2)cc1` was tested, and the T/C [7] was 100 % of control and the T/C [11] was 104 % of control.

In the case of `COc1ccc(C=Nc2ccc(OC(C)=O)cc2)cc1`, the T/C (dose: 45.0 mg/kg/injection, schedule: Q01DX009 (ip), vehicle: Klucel (hydroxypropylcellulose) (HPC)) is reported as 105 % of control, the T/C [15] is reported as 110 % of control and the T/C (dose: 65.0 mg/kg/injection, schedule: Q01DX009 (ip), vehicle: Klucel (hydroxypropylcellulose) (HPC)) is reported as 110 % of control. The T/C [7] was 110 % of control, the T/C [17] was 100 % of control and the T/C [2] was 104 % of control. The T/C (dose: 150.0 mg/kg/injection, schedule: Q01DX009 (ip), vehicle: Klucel (hydroxypropylcellulose) (HPC)) was 105 % of control, the T/C [9] was 115 % of control and the T/C (dose: 200.0 mg/kg/injection, schedule: Q01DX009 (ip), vehicle: other) was 104 % of control. The T/C [18] was 120 % of control, the T/C [4] was 118 % of control and the T/C (dose: 300.0 mg/kg/injection, schedule: Q01DX009 (ip), vehicle: Klucel (hydroxypropylcellulose) (HPC)) was 120 % of control. For the same compound, the T/C (dose: 400.0 mg/kg/injection, schedule: Q01DX009 (ip), vehicle: other) was 95 % of control and the T/C [5] was 109 % of control.

`CCOC(=O)C(OCc1ccccc1)(C(=O)Cl)C(C)C` (configuration not stated) was tested, and the T/C [15] was 118 % of control.

For `Cc1cc(O)c2c(c1)C(c1ccc3cc4c(c(O)c3c1O)C(=O)CC(C)(O)C4)c1cccc(O)c1C2=O` (configuration not stated), the T/C (dose: 0.09 mg/kg/injection, schedule: Q01DX009 (ip), vehicle: olive oil, sesame oil, peanut oil) was 102 % of control, the T/C (dose: 0.19 mg/kg/injection, schedule: Q01DX009 (ip), vehicle: olive oil, sesame oil, peanut oil) was 100 % of control and the T/C (dose: 0.39 mg/kg/injection, schedule: Q01DX009 (ip), vehicle: olive oil, sesame oil, peanut oil) was 102 % of control. The T/C (dose: 0.78 mg/kg/injection, schedule: Q01DX009 (ip), vehicle: olive oil, sesame oil, peanut oil) was 106 % of control.

For `N#CC(Nc1ccccc1C(N)=O)c1ccccc1` (configuration not stated), the T/C [2] was 109 % of control, the T/C [4] was 104 % of control and the T/C [5] was 95 % of control.

In the case of `CC(=O)Cc1ccc(C(=O)C(C)Cc2ccc(C(C)=O)cc2)cc1` (configuration not stated), the T/C [6] is reported as 100 % of control, the T/C (dose: 200.0 mg/kg/injection, schedule: Q04DX003 (ip), vehicle: saline with Tween-80) is reported as 90 % of control and the T/C (dose: 400.0 mg/kg/injection, schedule: Q04DX003 (ip), vehicle: saline with Tween-80) is reported as 90 % of control.

`CC(C)Sc1nc(N)nc2nc[nH]c12` was tested, and the T/C [12] was 100 % of control, the T/C (dose: 12.5 mg/kg/injection, schedule: Q01DX009 (ip), vehicle: Klucel (hydroxypropylcellulose) (HPC)) was 105 % of control and the T/C (dose: 25.0 mg/kg/injection, schedule: Q01DX009 (ip), vehicle: Klucel (hydroxypropylcellulose) (HPC)) was 100 % of control. The T/C (dose: 50.0 mg/kg/injection, schedule: Q01DX009 (ip), vehicle: Klucel (hydroxypropylcellulose) (HPC)) was 100 % of control, the T/C [8] was 105 % of control and the T/C [10] was 105 % of control.

`C=C(C)C(=O)NCCCCCC(=O)Oc1ccc([N+](=O)[O-])cc1` was tested, and the T/C [13] was 95 % of control, the T/C [14] was 116 % of control and the T/C [15] was 86 % of control and 106 % of control. The T/C [18] was 86 % of control.

In the case of `O=C(CCN1CC1)OCCOC(=O)CCN1CC1`, the T/C (dose: 1.5 mg/kg/injection, schedule: Q01DX009 (ip), vehicle: saline with Tween-80) is reported as 112 % of control, the T/C (dose: 16.0 mg/kg/injection, schedule: Q04DX003 (ip), vehicle: saline with Tween-80) is reported as 150 % of control and the T/C (dose: 21.0 mg/kg/injection, schedule: Q04DX003 (ip), vehicle: saline with Tween-80) is reported as 163 % of control. The T/C (dose: 33.0 mg/kg/injection, schedule: Q04DX003 (ip), vehicle: saline with Tween-80) was 163 % of control, the T/C [16] was 195 % of control and the T/C (dose: 75.0 mg/kg/injection, schedule: Q04DX003 (ip), vehicle: saline with Tween-80) was 181 % of control.

In the case of `O=C(S)c1ccccc1Br`, the T/C (dose: 50.0 mg/kg/injection, schedule: Q01DX005 (ip), vehicle: saline with Tween-80) is reported as 99 % of control, the T/C (dose: 100.0 mg/kg/injection, schedule: Q01DX005 (ip), vehicle: saline with Tween-80) is reported as 92 % of control and the T/C (dose: 200.0 mg/kg/injection, schedule: Q01DX005 (ip), vehicle: saline with Tween-80) is reported as 100 % of control.
